# Measurements from US7655678B2, “Pharmaceutical composition for the management of tumors” (Council of Scientfic & Industrial Research, priority 2004, dated 2010).
# Tests used:
# skin tumor formation = settings: topical application; cited from earlier work
# [1] = tested on: DMBA induced mouse skin tumor development; assay: chronic animal bioassay: DMBA induced mouse skin tumor development, topical treatment; type: in vivo, female Swiss albino mice; settings: DMBA 200 ug/kg; Cag 240 mg/kg, NA 240 mg/kg, BA 8 mmoles/kg body wt; topical twice weekly; terminated after 30 weeks; 15 animals each group
# Description: We have used female Swiss albino mice from the inbred colony of Industrial Toxicology Research Center, Lucknow, India. The treatment schedule was followed as described earlier (22). Animals were shaved on the back (2×2 cm) in the interscapular region using surgical clippers. Only the animals in the resting phase of hair growth were selected for the study. For this chronic animal bioassay, we have taken 135 animals and divided them into 9 groups, consisting of 15 animals each. Group 1 served as negative control group where animals received acetone/DMSO only. For the entire study we have used 7,12-Dimethylbenz (a) anthracene (DMBA) as a skin carcinogen. DMBA was used at the dose of 200 μg/kg body wt in 0.1 ml acetone. In group 3, animals were treated with DMBA followed by concomitant application of Calcium D-glucarate (240 mg/kg body wt in 0.1 ml of DMSO). […] In group 5, animals were treated with DMBA followed by concomitant application of Butyric acid (8 mmoles in 0.1 ml of acetone). […] In group 7, animals were treated with DMBA followed by a concomitant application of Calcium D-glucarate, Butyric acid. […] All the treatments were applied topically. […] Animals were inspected regularly for tumor incidence, baldness, acne, poor health, sickness etc. Experiment was terminated after 30 weeks.
# Experimental Design (15 Animals Each Group)
# skin papilloma formation = settings: topical, cited from earlier work; for rate of survival: SENCAR mice; for skin papilloma formation: from the ninth week of promotion
# mouse skin papillomas = settings: at higher concentrations; cited from earlier work
Compound,Cumulative no. of tumor [1],No. of tumo bearing animal/Initial No. of animals [1],Onset of firs tumor [in weeks] [1],further results
CC(C)=CCOc1ccc2ccc(=O)oc2c1 [7-Isopentenyloxucoumarin],,,,skin tumor formation (skin tumor formation): suppressed
"O=C([O-])[C@@H](O)[C@@H](O)[C@H](O)[C@@H](O)C(=O)[O-].[Ca+2] [DMBA + CaG, Calcium D-glucarate]",12,10/15,18 weeks,
"NC(=O)c1cccnc1 [DMBA + NA, Nicotinamide]",09,08/15,21 weeks,100% tumorigenesis [in weeks] [1]: 0 weeks
"Cc1c2ccccc2c(C)c2c1ccc1ccccc12 [DMBA, 7,12-Dimethylbenz (a) anthracene]",62,15/15,15 weeks,100% tumorigenesis [in weeks] [1]: 28 weeks
C=CCSSCC=C [diallyl disulfide],,,,rate of survival (skin papilloma formation): significantly increased; skin papilloma formation (skin papilloma formation): significantly inhibited
C=CCSCC=C [diallyl sulfide],,,,rate of survival (skin papilloma formation): significantly increased; skin papilloma formation (skin papilloma formation): significantly inhibited
CC1=C(/C=C/C(C)=C/C=C/C(C)=C/C(=O)O)C(C)(C)CCC1 [retinoic acid],,,,cytotoxicity (mouse skin papillomas): cytotoxic
